Measurements published in PubChem BioAssay (NCI).
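Briefly, cells in 96-well plates were exposed to five compound concentrations for 48 h, and endpoints were estimated by linear interpolation. GI50: concentration for 50% inhibition of growth. TGI: total growth inhibition.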

What was measured:
Experiment in all cases: NCI tumour cell line growth inhibition, 48 h
RXF 393 renal = system: RXF 393 renal
SK-MEL-28 melanoma = system: SK-MEL-28 melanoma
SK-MEL-2 melanoma = system: SK-MEL-2 melanoma
A498 renal = system: A498 renal
SNB-75 CNS = system: SNB-75 CNS
IGROV1 ovarian = system: IGROV1 ovarian
PC-3 prostate = system: PC-3 prostate
CCRF-CEM leukemia = system: CCRF-CEM leukemia
SW-620 colon = system: SW-620 colon
MDA-MB-231 breast = system: MDA-MB-231 breast

Work on `CO[C@@H]1[C@H]2[C@@H](C)c3ccoc3C[C@@H]2[C@@]2(C)CC[C@H](OC(=O)c3ccccc3)[C@](C)(C(=O)O)[C@]2(O)[C@@H]1OC(=O)c1ccccc1` yielded a GI50 (RXF 393 renal) of 12.2 µM, a TGI (RXF 393 renal) of 39 µM and a GI50 (SK-MEL-28 melanoma) of 14.5 µM. It also gave a TGI (SK-MEL-28 melanoma) of over 50 µM, a GI50 (SK-MEL-2 melanoma) of 24.1 µM and a TGI (SK-MEL-2 melanoma) of over 50 µM. For the same molecule, the GI50 (A498 renal) was 0.941 µM, the TGI (A498 renal) was 7.67 µM and the GI50 (SNB-75 CNS) was over 50 µM. The TGI (SNB-75 CNS) was over 50 µM, the GI50 (IGROV1 ovarian) was over 50 µM and the TGI (IGROV1 ovarian) was over 50 µM. The GI50 (PC-3 prostate) was 16.4 µM, the TGI (PC-3 prostate) was over 50 µM and the GI50 (CCRF-CEM leukemia) was 22.7 µM. The TGI (CCRF-CEM leukemia) was over 50 µM, the GI50 (SW-620 colon) was 9.3 µM and the TGI (SW-620 colon) was 20 µM. The GI50 (MDA-MB-231 breast) was 6.07 µM and the TGI (MDA-MB-231 breast) was 16 µM.

`O=C(Nc1ccc2c(c1)OCO2)C(=O)c1c[nH]c2cc(F)ccc12` gave a GI50 (RXF 393 renal) of 3.65 µM, a TGI (RXF 393 renal) of 11 µM and a GI50 (SK-MEL-28 melanoma) of 2.05 µM. For the same molecule, the TGI (SK-MEL-28 melanoma) was 5.54 µM, the GI50 (SK-MEL-2 melanoma) was 5.19 µM and the TGI (SK-MEL-2 melanoma) was 31.1 µM. The GI50 (A498 renal) was 2.72 µM, the TGI (A498 renal) was 16.7 µM and the GI50 (SNB-75 CNS) was 2.6 µM. For the same molecule, the TGI (SNB-75 CNS) was 12.1 µM, the GI50 (IGROV1 ovarian) was 12.6 µM and the TGI (IGROV1 ovarian) was over 100 µM. For the same molecule, the GI50 (PC-3 prostate) was 3.33 µM, the TGI (PC-3 prostate) was over 100 µM and the GI50 (CCRF-CEM leukemia) was 5.33 µM. For the same molecule, the TGI (CCRF-CEM leukemia) was over 100 µM, the GI50 (SW-620 colon) was 2.07 µM and the TGI (SW-620 colon) was over 100 µM. It also gave a GI50 (MDA-MB-231 breast) of 2.12 µM and a TGI (MDA-MB-231 breast) of 25.4 µM.

Molecule `CC(C)(C)c1ccc(O)c(CN(Cc2cc(C(C)(C)C)ccc2O)C2CCCCC2)c1` has a TGI (RXF 393 renal) of 30 µM, a TGI (SK-MEL-28 melanoma) of 27.2 µM and a TGI (SK-MEL-2 melanoma) of 35.4 µM. The TGI (A498 renal) was 31 µM, the TGI (SNB-75 CNS) was 51.3 µM and the TGI (IGROV1 ovarian) was 45.9 µM. It also gave a TGI (PC-3 prostate) of 46.8 µM, a TGI (CCRF-CEM leukemia) of 99.9 µM and a TGI (SW-620 colon) of 35.1 µM. The TGI (MDA-MB-231 breast) was 30.4 µM.

In the case of `COc1ccc(/C=C2\CC(C)CC3C2=NN(c2ccccc2)C3c2ccc(OC)c(OC)c2)cc1OC` (stereo not given), the GI50 (RXF 393 renal) is reported as over 100 µM, the TGI (RXF 393 renal) is reported as over 100 µM and the GI50 (SK-MEL-28 melanoma) is reported as 4.87 µM. For the same molecule, the TGI (SK-MEL-28 melanoma) was 18.3 µM, the GI50 (SK-MEL-2 melanoma) was 8.8 µM and the TGI (SK-MEL-2 melanoma) was over 100 µM. It also gave a GI50 (A498 renal) of 14.5 µM, a TGI (A498 renal) of 72.7 µM and a GI50 (SNB-75 CNS) of 3.4 µM. The TGI (SNB-75 CNS) was 18.5 µM, the GI50 (IGROV1 ovarian) was 5.37 µM and the TGI (IGROV1 ovarian) was over 100 µM. The GI50 (PC-3 prostate) was 6.32 µM, the TGI (PC-3 prostate) was over 100 µM and the GI50 (CCRF-CEM leukemia) was 4.02 µM. For the same molecule, the TGI (CCRF-CEM leukemia) was over 100 µM, the GI50 (SW-620 colon) was 3.96 µM and the TGI (SW-620 colon) was over 100 µM. For the same molecule, the GI50 (MDA-MB-231 breast) was 3.24 µM and the TGI (MDA-MB-231 breast) was 13.2 µM.

With `CC[C@]12C=CCN3CC[C@@]4(c5ccc(OC)cc5N(C)[C@H]4[C@@](O)(C(=O)OC)[C@@H]1OC(=O)CCC(=O)N[C@H](Cc1c[nH]c4ccccc14)C(=O)OC)[C@@H]32` the GI50 (RXF 393 renal) was 2.22 µM, the TGI (RXF 393 renal) was 5.72 µM and the GI50 (SK-MEL-28 melanoma) was 2.21 µM. It also gave a TGI (SK-MEL-28 melanoma) of 5.44 µM, a GI50 (SK-MEL-2 melanoma) of 17 µM and a TGI (SK-MEL-2 melanoma) of 37.3 µM. For the same molecule, the GI50 (A498 renal) was 9.29 µM, the TGI (A498 renal) was 30.8 µM and the GI50 (SNB-75 CNS) was 2.23 µM. For the same molecule, the TGI (SNB-75 CNS) was 14.1 µM, the GI50 (IGROV1 ovarian) was 4.3 µM and the TGI (IGROV1 ovarian) was 24.1 µM. It also gave a GI50 (PC-3 prostate) of 2.95 µM, a TGI (PC-3 prostate) of 17 µM and a GI50 (CCRF-CEM leukemia) of 3.34 µM. For the same molecule, the TGI (CCRF-CEM leukemia) was over 100 µM, the GI50 (SW-620 colon) was 3.03 µM and the TGI (SW-620 colon) was 10.6 µM. For the same molecule, the GI50 (MDA-MB-231 breast) was 2.83 µM and the TGI (MDA-MB-231 breast) was 9.54 µM.

Work on `CC[C@@H](C)Nc1cc(C(=O)NC2CC3CCC(C2)N3c2ccc(C(=O)C3CC3)cn2)c(C)cc1C(N)=O` (stereo not given in full) yielded a GI50 (RXF 393 renal) of 0.0516 µM, a TGI (RXF 393 renal) of over 100 µM and a GI50 (SK-MEL-28 melanoma) of 0.0519 µM. For the same molecule, the TGI (SK-MEL-28 melanoma) was over 100 µM, the GI50 (SK-MEL-2 melanoma) was 0.0661 µM and the TGI (SK-MEL-2 melanoma) was 19 µM. It also gave a GI50 (A498 renal) of 0.103 µM, a TGI (A498 renal) of over 100 µM and a GI50 (SNB-75 CNS) of 0.192 µM. The TGI (SNB-75 CNS) was over 100 µM, the GI50 (IGROV1 ovarian) was 0.0436 µM and the TGI (IGROV1 ovarian) was over 100 µM. The GI50 (PC-3 prostate) was 0.0469 µM, the TGI (PC-3 prostate) was over 100 µM and the GI50 (CCRF-CEM leukemia) was 0.0482 µM. It also gave a TGI (CCRF-CEM leukemia) of over 100 µM, a GI50 (SW-620 colon) of 0.0323 µM and a TGI (SW-620 colon) of over 100 µM. For the same molecule, the GI50 (MDA-MB-231 breast) was 0.0538 µM and the TGI (MDA-MB-231 breast) was over 100 µM.

In the case of `CN(O)C(=S)c1ccccc1`, the TGI (RXF 393 renal) is reported as 14.5 µM, the TGI (SK-MEL-28 melanoma) is reported as over 100 µM and the TGI (SK-MEL-2 melanoma) is reported as over 33.1 µM. It also gave a TGI (A498 renal) of 68.2 µM, a TGI (SNB-75 CNS) of over 100 µM and a TGI (IGROV1 ovarian) of 56.3 µM. For the same molecule, the TGI (PC-3 prostate) was over 59.1 µM, the TGI (CCRF-CEM leukemia) was 4.99 µM and the TGI (SW-620 colon) was 14.6 µM. For the same molecule, the TGI (MDA-MB-231 breast) was over 24.9 µM.
